Assay results reported in publication PMC8539097, “Structural Insight into a Yeast Maltase—The BaAG2 from Blastobotrys adeninivorans with Transglycosylating Activity” (Journal of Fungi, 2021).

Target: T1, BaAG2 (Blastobotrys adeninivorans, UniProt Z9CO09ION3)
T1 construct: wild type, recombinant from plasmid pURI3-BaAG2Cter in E. coli BL21(DE3), Ni-IMAC purified (plus SEC for crystals); domains span residues 1-581; most likely monomer
T1 sequence (Z9CO09ION3 1-580): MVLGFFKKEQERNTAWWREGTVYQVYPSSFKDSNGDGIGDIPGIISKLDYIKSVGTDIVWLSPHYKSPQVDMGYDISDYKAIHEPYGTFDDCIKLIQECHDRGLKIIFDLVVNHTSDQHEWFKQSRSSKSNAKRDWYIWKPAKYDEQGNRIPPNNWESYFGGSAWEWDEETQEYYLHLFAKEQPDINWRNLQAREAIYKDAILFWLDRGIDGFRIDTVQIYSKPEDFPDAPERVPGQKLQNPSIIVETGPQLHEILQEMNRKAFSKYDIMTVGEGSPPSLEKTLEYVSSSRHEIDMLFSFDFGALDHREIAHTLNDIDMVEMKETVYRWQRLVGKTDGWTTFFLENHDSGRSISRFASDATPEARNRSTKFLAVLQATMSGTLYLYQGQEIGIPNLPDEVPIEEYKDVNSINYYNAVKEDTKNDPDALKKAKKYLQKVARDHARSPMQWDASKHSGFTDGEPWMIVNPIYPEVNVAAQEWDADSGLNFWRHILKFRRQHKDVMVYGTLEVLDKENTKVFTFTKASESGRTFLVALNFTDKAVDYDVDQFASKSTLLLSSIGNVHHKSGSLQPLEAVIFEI
Assay: X-ray crystallography, crystal soaking, […] Å
Format: binding
Details: pH 5.5, 100 mM glucose soak; active site, subsite -1

## OC[C@H]1OC(O)[C@H](O)[C@@H](O)[C@@H]1O (stereo partly drawn) [D-glucose]
  X-ray crystallography, crystal soaking, 2.13 Å: codes 7P01 (BaAG2-acarbose) and 7P07 (BaAG2-glucose)
